Data set [1] concerns the target T1, Disintegrin and metalloproteinase domain-containing protein 17 (Homo sapiens, UniProt P78536). The data set is described as follows: Inhibition of TACE.
Data set [2] in a line: Selectivity for TACE over MMP1.
Data set [3] can be described thus: Inhibition of TNFalpha production in whole blood. The data set is classed as functional, tissue-based.
The nature of data set [4]: Selectivity for TACE over MMP2.
Data set [5] is described as follows: Bioavailability in rat. In kind it is ADME, organism-based. Particulars: in vivo.
A short description of data set [6]: Selectivity for TACE over MMP9.
Another data set deals with Rattus norvegicus. The data set is described as follows: Inhibition of LPS-induced TNFalpha production in po dosed rat plasma. The data set is classed as functional.
Data set [7] in a line: Half life in human. The conditions noted are these: in vivo. In kind it is ADME, organism-based.
The nature of data set [8]: Oral bioavailability in rat. The conditions noted are these: in vivo. The data set is classed as ADME, organism-based.
Data set [9] has as its system Mus musculus. Put plainly: Inhibition of LPS-induced TNFalpha production in po dosed mouse. The data set is classed as functional.
Data set [10] can be described thus: Oral bioavailability in dog. The data set is classed as ADME, organism-based, Canis lupus familiaris. Particulars: in vivo.
Data set [11] can be described thus: Fraction unbound in human serum. In kind it is ADME, cell-free.
In the next data set the test system is Blood. The data set is described as follows: Inhibition of TNFalpha production in human whole blood. The data set is classed as functional, tissue-based.
The target of data set [12] is T1, Disintegrin and metalloproteinase domain-containing protein 17. The data set is described as follows: Inhibition of TACE in human PBMC.
Data set [13] has as its target Disintegrin and metalloproteinase domain-containing protein 17 (Sus scrofa, UniProt O77636). Put plainly: Inhibition of pig TACE.
The target in a further data set is Collagenase 3 (Homo sapiens, UniProt P45452). Put plainly: Inhibition of MMP13.
For data set [14], the system named is Mus musculus. Put plainly: Inhibition of TNFalpha production in mouse at 100 mg/kg, po after 1 hr. In kind it is functional.
The next data set has as its target T2, Interstitial collagenase (Homo sapiens, UniProt P03956).
T2 sequence (P03956 whole entry): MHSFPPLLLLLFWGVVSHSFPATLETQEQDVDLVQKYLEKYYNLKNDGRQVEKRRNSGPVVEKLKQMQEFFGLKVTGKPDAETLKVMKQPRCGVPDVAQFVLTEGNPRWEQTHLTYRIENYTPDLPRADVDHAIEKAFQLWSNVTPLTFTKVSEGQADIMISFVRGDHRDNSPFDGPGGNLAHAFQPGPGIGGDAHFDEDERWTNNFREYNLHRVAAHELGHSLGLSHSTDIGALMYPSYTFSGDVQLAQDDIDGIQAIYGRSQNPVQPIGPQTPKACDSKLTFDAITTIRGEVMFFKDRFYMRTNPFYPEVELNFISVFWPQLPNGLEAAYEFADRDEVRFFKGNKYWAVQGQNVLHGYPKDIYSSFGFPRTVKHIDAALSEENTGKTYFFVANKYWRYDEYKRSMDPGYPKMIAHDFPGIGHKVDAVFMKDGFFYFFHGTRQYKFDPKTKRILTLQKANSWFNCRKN
The data set is described as follows: Inhibition of MMP1.

The test system of the next data set is THP-1. Put plainly: Inhibition of LPS-induced TNFalpha production in human THP1 cells. In kind it is functional, cell-based.
The target in data set [15] is 72 kDa type IV collagenase (Homo sapiens, UniProt P08253). Put plainly: Inhibition of MMP2.
Chain of 72 kDa type IV collagenase (P08253 whole entry): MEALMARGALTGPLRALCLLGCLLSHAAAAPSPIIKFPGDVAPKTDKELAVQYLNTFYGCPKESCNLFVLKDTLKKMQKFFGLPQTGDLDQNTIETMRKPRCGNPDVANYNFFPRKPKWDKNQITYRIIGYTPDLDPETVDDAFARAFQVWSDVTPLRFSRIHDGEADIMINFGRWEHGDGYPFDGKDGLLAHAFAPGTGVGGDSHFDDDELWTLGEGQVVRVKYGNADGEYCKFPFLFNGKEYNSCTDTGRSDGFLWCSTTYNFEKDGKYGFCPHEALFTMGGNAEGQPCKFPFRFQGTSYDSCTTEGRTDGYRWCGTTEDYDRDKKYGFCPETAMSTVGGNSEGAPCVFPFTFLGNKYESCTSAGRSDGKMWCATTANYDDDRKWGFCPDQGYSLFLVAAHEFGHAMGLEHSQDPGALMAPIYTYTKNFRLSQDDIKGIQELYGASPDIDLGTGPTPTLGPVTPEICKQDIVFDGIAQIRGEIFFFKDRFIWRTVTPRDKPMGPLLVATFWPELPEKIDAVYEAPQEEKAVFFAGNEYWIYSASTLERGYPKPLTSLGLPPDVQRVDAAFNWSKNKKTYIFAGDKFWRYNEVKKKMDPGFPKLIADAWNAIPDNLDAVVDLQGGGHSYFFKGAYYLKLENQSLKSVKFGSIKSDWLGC
The target in data set [16] is Matrix metalloproteinase-9 (Homo sapiens, UniProt P14780). Put plainly: Inhibition of MMP9.
Chain of Matrix metalloproteinase-9 (P14780 whole entry, the tested form may be a part): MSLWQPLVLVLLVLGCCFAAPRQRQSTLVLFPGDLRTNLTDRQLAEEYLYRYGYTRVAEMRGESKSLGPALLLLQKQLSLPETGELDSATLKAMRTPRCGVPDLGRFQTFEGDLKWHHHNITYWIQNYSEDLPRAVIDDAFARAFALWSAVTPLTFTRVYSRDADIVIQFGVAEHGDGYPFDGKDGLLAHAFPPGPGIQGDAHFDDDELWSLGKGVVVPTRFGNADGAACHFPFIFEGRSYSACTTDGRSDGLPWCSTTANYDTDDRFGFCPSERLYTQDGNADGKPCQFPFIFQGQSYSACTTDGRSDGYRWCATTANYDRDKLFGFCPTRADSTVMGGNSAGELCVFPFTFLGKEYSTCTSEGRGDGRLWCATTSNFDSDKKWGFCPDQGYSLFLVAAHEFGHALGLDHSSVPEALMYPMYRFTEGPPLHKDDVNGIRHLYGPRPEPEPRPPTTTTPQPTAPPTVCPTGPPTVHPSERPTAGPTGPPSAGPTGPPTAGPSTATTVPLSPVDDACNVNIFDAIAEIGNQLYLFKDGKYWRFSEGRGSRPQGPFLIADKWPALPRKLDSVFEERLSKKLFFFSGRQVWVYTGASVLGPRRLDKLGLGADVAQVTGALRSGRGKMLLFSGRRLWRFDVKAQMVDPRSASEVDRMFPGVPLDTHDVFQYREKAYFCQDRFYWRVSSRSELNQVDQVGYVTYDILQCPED
In data set [17] the target is T1, Disintegrin and metalloproteinase domain-containing protein 17. Put plainly: Inhibition of TACE by cell free assay.
In data set [18] the test system is Mus musculus. Put plainly: Inhibition of TNFalpha production in mouse at 50 mg/kg, po after 1 hr. In kind it is functional.
A short description of data set [19]: Half life in rat LPS model. The data set is classed as ADME, organism-based. Particulars: in vivo.

A value given as a limit tells only on which side of the number the result lay.

T1 sequence (P78536 whole entry, the tested form may be a part): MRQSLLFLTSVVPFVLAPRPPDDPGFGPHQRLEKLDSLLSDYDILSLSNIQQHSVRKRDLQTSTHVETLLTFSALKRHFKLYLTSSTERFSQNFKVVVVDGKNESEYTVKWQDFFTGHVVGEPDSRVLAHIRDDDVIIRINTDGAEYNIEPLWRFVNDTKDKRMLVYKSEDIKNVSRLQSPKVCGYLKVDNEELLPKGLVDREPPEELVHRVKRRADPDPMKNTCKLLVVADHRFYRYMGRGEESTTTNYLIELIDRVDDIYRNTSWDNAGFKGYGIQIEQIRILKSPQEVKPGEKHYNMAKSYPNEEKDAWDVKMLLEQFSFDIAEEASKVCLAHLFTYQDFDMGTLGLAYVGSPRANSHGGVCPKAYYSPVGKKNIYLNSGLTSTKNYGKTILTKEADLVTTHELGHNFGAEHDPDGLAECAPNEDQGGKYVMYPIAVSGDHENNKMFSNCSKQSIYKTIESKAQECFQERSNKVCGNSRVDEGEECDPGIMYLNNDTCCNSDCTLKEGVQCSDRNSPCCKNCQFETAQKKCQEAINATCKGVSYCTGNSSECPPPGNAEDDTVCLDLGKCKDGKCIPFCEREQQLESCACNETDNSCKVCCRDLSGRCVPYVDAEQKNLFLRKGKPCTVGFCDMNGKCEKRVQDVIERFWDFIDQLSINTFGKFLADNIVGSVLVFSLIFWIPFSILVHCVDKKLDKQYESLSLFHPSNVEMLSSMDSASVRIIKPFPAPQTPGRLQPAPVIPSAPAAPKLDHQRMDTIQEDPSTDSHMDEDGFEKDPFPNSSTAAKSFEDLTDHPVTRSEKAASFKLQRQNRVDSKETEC
Chain of Disintegrin and metalloproteinase domain-containing protein 17 (Sus scrofa, UniProt O77636) (O77636 whole entry, the tested form may be a part): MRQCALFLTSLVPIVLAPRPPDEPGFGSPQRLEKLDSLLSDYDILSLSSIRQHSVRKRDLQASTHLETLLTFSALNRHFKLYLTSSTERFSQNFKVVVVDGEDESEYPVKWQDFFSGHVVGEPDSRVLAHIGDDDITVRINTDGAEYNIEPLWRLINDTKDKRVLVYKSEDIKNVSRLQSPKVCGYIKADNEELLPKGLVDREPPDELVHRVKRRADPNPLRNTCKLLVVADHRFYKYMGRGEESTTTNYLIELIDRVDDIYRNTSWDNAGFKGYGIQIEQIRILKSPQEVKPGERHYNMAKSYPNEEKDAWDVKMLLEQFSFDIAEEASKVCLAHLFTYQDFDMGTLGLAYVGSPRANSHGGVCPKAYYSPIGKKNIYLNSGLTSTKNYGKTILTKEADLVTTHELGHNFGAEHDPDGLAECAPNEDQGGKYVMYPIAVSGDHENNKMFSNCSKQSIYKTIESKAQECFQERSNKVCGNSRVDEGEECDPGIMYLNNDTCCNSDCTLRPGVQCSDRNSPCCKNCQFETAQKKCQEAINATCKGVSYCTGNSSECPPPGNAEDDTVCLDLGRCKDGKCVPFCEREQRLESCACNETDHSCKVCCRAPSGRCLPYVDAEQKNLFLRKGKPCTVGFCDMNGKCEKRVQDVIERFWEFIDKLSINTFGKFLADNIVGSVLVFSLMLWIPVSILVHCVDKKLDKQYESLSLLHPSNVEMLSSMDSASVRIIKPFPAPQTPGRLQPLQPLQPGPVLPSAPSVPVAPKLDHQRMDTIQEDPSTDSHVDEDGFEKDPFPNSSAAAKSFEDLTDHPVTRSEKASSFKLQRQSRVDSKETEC

Regarding `C[C@H](C(=O)NO)N1CC[C@@](C)(c2ccc(-c3ccccc3)cc2)C1=O`, in data set [1], the IC50 was determined as 13000 nM.

On to `Cc1cc(COc2ccc(C(=O)N[C@@H]3COCC[C@@H]3C(=O)NO)cc2)c2ccccc2n1`, for which the Selectivity ratio in data set [2] and in data set [4] was over 30000 throughout. Besides, the results for the IC50 in data set [3] and in [1] were 130 nM and under 1 nM, respectively. The bioavailability in data set [5] is 58%.

As to `Cc1cc(COc2ccc(S(=O)(=O)CC3C(C(=O)NO)CCN3C)cc2)c2ccccc2n1` (stereo unspecified), the Selectivity ratio in [2], in [4] and in [6] was 2000 each time. Further, the IC50 was found to be 180 nM in data set [3] and 1 nM in data set [1].

As for `CC#CCOc1ccc(S(=O)(=O)N2Cc3ccc(CO)cc3N(C(C)=O)CC2C(=O)NO)cc1` (stereo unspecified), the Selectivity ratio in data set [2] is over 40.

On to `Cc1cc(COc2ccc(C(=O)NC3(C)C(=O)NC(=O)NC3=O)cc2)c2ccccc2n1`, for which, in data set [1], the IC50 came out at 0.026 nM.

Turning to `CC#CCOc1ccc(S(=O)(=O)N(C)c2c(C(=O)NO)cnc3c(OC)cccc23)cc1`, in data set [2], the Selectivity ratio came to 50.

`CCC(=O)[C@@H](NC(=O)[C@H](c1ccc(OC)cc1)[C@H](CO)C(=O)NO)C(C)(C)C`: in the data set on Rattus norvegicus, the ED50 amounted to 1 mg/kg.

Turning to `Cc1cc(COc2ccc([C@]3(N)CCN([C@H](CC(C)C)C(=O)NO)C3=O)cc2)c2ccccc2n1`, the half-life in data set [7] was 3 h. Moreover, the bioavailability in data set [8] was found to be 16%; in data set [10], 54%. In the data set on Mus musculus [9], this compound displayed an ED50 of 6 mg/kg. Besides, the figures for the concentration for half-maximal inhibition (IC50) in data set [3] and in [1] were 90 nM and 0.2 nM, respectively.

For `Cc1cc(COc2ccc([C@]3(C)CCN([C@H](C)C(=O)NO)C3=O)cc2)c2ccccc2n1`, the IC50 in [3] was 350 nM. The compound further yielded a fraction unbound in data set [11] of 0.036.

`Cc1cc(COc2ccc(N3CC[C@](C)(CC(=O)NO)C3=O)cc2)c2ccccc2n1`: the IC50 in the data set with Blood is 1570 nM; in [1] it was 1 nM.

As to `CNC(=O)[C@@H](NC(=O)[C@H](c1ccc(C)cc1)[C@H](CO)C(=O)NO)C(C)(C)C`, half-maximal inhibition in data set [12] (IC50) was put at 141 nM.

Consider `CC(C)C[C@@H](C(=O)NN(CC(C)C)S(C)(=O)=O)[C@H](C/C=C/c1ccccc1)C(=O)NO`, for which 3 nM corresponded to half-maximal inhibition in data set [1] (IC50). That is a single-digit nanomolar value.

For `Cc1cc(COc2ccc(N3CCC([C@H](NC(=O)OC(C)(C)C)C(=O)NO)C3=O)cc2)c2ccccc2n1` (stereo partly specified), the Selectivity ratio in data set [2] came out at 700; in data set [4], 300; in [6], 300.

`O=C(NO)[C@@H]1CC[C@H](O)CN1S(=O)(=O)c1ccc(OCc2ccccc2I)cc1` gave an IC50 in data set [1] of 110000 nM.

`Cc1cc(COc2ccc(C(=O)NCCC(=O)NO)cc2)c2ccccc2n1` yielded an IC50 in data set [13] of 1 nM. In other words, the single-digit nanomolar range.

Compound `CC#CCOc1ccc([S+]([O-])C(CCCCCC)C(=O)NO)cc1` (stereo unspecified) returned an IC50 in data set [1] of 4 nM.

Compound `C[C@H](C(=O)NO)N1CC[C@@](C)(c2ccc(Oc3ccccc3)cc2)C1=O` came in with an IC50 in [1] of 185 nM.

In the case of `Cc1cc(COc2ccc(C3(C)C(=O)NC(=O)NC3=O)cc2)c2ccccc2n1`, the midpoint of inhibition in data set [1], the IC50, lay at 1 nM.

`COc1ccc(S(=O)(=O)N(C)c2c(C)cc(Br)cc2C(=O)NO)cc1`: it took 11 nM to reach half-maximal inhibition against Collagenase 3 (IC50).

For `CC#CCOc1ccc(S(=O)(=O)CC2(C(=O)NO)CCN(S(=O)(=O)C(C)C)CC2)cc1`, the Selectivity ratio in [4] came out at 230.

With `CC#CCOc1ccc(S(=O)(=O)N(C)c2c(C(=O)NO)cnc3onc(C)c23)cc1`, at 100 mg/kg the inhibition in vivo in the data set on Mus musculus [14] was 95%.

In data set [1], `CC(C)Cc1ccc([C@]2(C)CCN([C@H](C)C(=O)NO)C2=O)cc1` came in with an IC50 of 1000 nM.

Regarding `Cc1cc(COc2ccc(NC(=O)[C@@H]3[C@@H](C(=O)NO)CCCN3C)cc2)c2ccccc2n1`, the IC50 in [3] is 20 nM; in [1], 6.2 nM.

Take `Cc1cc(COc2ccc(N3C(C(=O)NO)CCCS3(=O)=O)cc2)c2ccccc2n1` (stereo unspecified): the Selectivity ratio in data set [2], in data set [4] and in data set [6] was over 1000 each time.

In the case of `C[C@H](C(=O)NO)N1CC[C@@](C)(c2ccc(OCc3cc(C(F)(F)F)cc(C(F)(F)F)c3)cc2)C1=O`, the Selectivity ratio in data set [2], in data set [4] and in [6] was over 1000 in each case. Moreover, in [1], the IC50 is 2 nM.

Regarding `CNC(=O)[C@H](Cc1ccc(NC(=N)N)cc1)NC(=O)[C@H](CC(C)C)[C@H](CCCc1ccccc1)C(=O)NO`, the IC50 at Interstitial collagenase is 6 nM; against Collagenase 3, 0.1 nM; in the data set on THP-1 it was 130 nM.

As to `C/C=C/C=C/C=C1/C=C(CCC(=O)NO)C(=O)OC1`, the IC50 in data set [15] came to 6 nM; in data set [16], 23 nM; in data set [1] it was 28 nM.

Regarding `CCC[C@@H]([C@@H](CC(C)C)C(=O)C[C@@H](CCCN/C(N)=N/[N+](=O)[O-])C(=O)Nc1nccs1)N(O)C=O`, the IC50 in data set [17] is 4.3 nM.

As to `C=CCONC(=O)[C@@H]1[C@@H](C)N(C(C)=O)CCN1S(=O)(=O)c1ccc(OCc2ccc(C)cc2)cc1`, the IC50 at Interstitial collagenase amounted to 1600 nM; on Collagenase 3, 3 nM; in [1] it was 1 nM.

In data set [1], `CCOP(=O)(N[C@@H](CC(C)C)C(=O)NO)c1ccc(OC)cc1` (stereo partly specified) had an IC50 of 76 nM.

In the case of `COc1cc(COc2ccc3c(c2)NCCN(C(CCCCNS(C)(=O)=O)C(=O)NO)S3(=O)=O)cc(OC)c1` (stereo unspecified), the affinity in data set [13], expressed as Ki, was 5 nM.

In [1], `CC1(C)SCCN(S(=O)(=O)c2ccc(Oc3ccncc3)cc2)[C@H]1C(=O)NO` [PRINOMASTAT] came in with an IC50 of 22 nM.

`Cc1cc(OCc2ccc(NC(=O)[C@H]3CCCC[C@@H]3C(=O)NO)cc2)c2ccccc2n1`: the IC50 in [3] is over 50000 nM; in data set [1], 8 nM.

In turn, `CC#CCOc1ccc(S(=O)(=O)N(C)c2c(N3CCN(C)CC3)ccc(Br)c2C(=O)NO)cc1` came in with an inhibition in vivo at 50 mg/kg in the data set with Mus musculus [18] of 100%. The Selectivity ratio in [2] stood at 500. In data set [1], this compound had an IC50 of 25 nM.

In the case of `C[C@H](C(=O)NO)N1CC[C@@](C)(c2ccc(OCc3ccccc3)cc2)C1=O`, in data set [1], 4 nM corresponded to half-maximal inhibition (IC50).

Compound `CC[C@H](C)[C@H](NC(=O)[C@H](CC(C)C)[C@H](C(C)C)N(O)C=O)C(=O)Nc1ccccn1` displayed a half-life in data set [19] of over 12 h. This compound also came in with an IC50 in data set [17] of 40 nM.

`CC1(C)SCCN(S(=O)(=O)c2ccc(OCC#CCO)cc2)[C@H]1C(=O)NO` returned an IC50 in data set [1] of 440 nM.

The compound `CNC(=O)[C@@H](NC(=O)[C@H](c1ccc(OC)cc1)[C@H](CO)C(=O)NO)C(C)(C)C` displayed a half-inhibitory concentration (IC50) in data set [12] of 56 nM.

As a reminder, the IC50 is the midpoint of a concentration-inhibition curve. High values mean a need for much substance, low ones inhibition by little substance. What is called bioavailability is dose-corrected exposure relative to a reference, in per cent. Higher therefore signals much systemic uptake. In general, ED50 refers to the dose that gives a 50% effect, or the effect in half of the subjects. In general, half-life refers to how long it takes for the measured level to halve. A low value points to rapid decline. The term fraction unbound denotes free concentration divided by total concentration. High values mean weak binding, low ones extensive binding. The inhibition in vivo is how much of the control response was suppressed. A lower inhibition in vivo goes with a response near the control. Usually Ki stands for a measure of affinity in units of concentration, obtained from inhibition or displacement. A lower Ki goes with a stronger hold on the target.

Values taken from ChEMBL document CHEMBL1140868, “Current perspective of TACE inhibitors: a review” (Bioorg Med Chem, 2009).
